In patent US20090233966A1, “Analogues of the Azinomycins as Anti-Tumour Agents and as Prodrugs” (School of Pharmacy, University of London, priority 2005, published 2009):
Where two headings read alike, the source gives them in different places.

How the values were obtained:
NCl 60 cell panel = assay: NCI 60 cell line panel antitumour activity (whole panel); assay type: cell-based, human; conditions: wide range of human tumour cell lines
Description: Examples 6 and 7 make use of the NCl 60 cell panel. This is an in vitro cell line screening project providing direct support to the National Cancer Institute's USA Developmental Therapeutic Programme for anti cancer discovery. The methodolgy for the cell line's operation is described by Boyd et al in Drug Development Research 1995, 34, 91-109.

[1] = test system: U2-OS human osteosarcoma cell line; assay: Cytotoxicity in U2-OS cell line; assay type: cell-based; conditions: for cytotoxicity (in words): initial cytotoxicity studies; for IC50: read-out: IC50 (nM) of compound
Description: (§1) Initial cytotoxicity studies were in the performed U2-OS and HoeR cell lines. The U2-OS is a human osteosarcoma cell line and HoeR is a DNA minor groove binder-resistant variant of this. Both are available from the American Type Culture Collection (ATCC), Dr. Raymon H. 10801 University Boulevard, Manassas, Va., 20110-2209, USA.

[2] = test system: wild type CHO cells (absent in CYP3A4); assay: Cytotoxicity on wild type CHO cells; assay type: cell-based; conditions: FIG. 2(b)
[3] = test system: HoeR (Hoechst415 resistant version of U2-OS); assay: Cytotoxicity in HoeR cell line; assay type: cell-based, human; conditions: for cytotoxicity (in words): initial cytotoxicity studies; for IC50: read-out: IC50 (nM) of compound
Description: as §1

CYP3A4 CHO cells = assay: Cytotoxicity on CHO cells transfected with CYP3A4; assay type: cell-based; conditions: FIG. 2(b)

| SMILES | antitumour activity in the NCl 60 cell line panel (in words) (NCl 60 cell panel) | cytotoxicity (in words) [1] | IC50 [1] | cytotoxicity (in words) [2] | cytotoxicity (in words) [3] | IC50 [3] | cytotoxicity (in words) (CYP3A4 CHO cells) | IC50 ([1]; Homo sapiens, U2OS) | IC50 ([3]; Homo sapiens, U2OS) |
| --- | --- | --- | --- | --- | --- | --- | --- | --- | --- |
| COc1cc(C(=O)O[C@H](C(=O)NCCN2CCCC(Cl)C2)C2(C)CO2)c2cccc(C)c2c1 (some centres unmarked) | excellent anti-tumour activity |  |  |  |  |  |  |  |  |
| COc1cc(C(=O)OC(C(N)=O)[C@]2(C)CO2)c2ccccc2c1 (stereo partly drawn) [(2S, 3S)-1] |  | good activity | 15 nM | high cytotoxicity | good activity | 14 nM | high cytotoxicity |  |  |
| COc1cc(C(=O)OC(C(N)=O)[C@]2(C)CO2)c2ccccc2c1 (stereo partly drawn) [(2R, 3R)-1] |  | good activity | 40 nM |  | good activity | 40 nM |  |  |  |
| COc1cc(C(=O)OC(C(N)=O)[C@]2(C)CO2)c2ccccc2c1 (stereo partly drawn) [(2S, 3R)-1] |  | good activity | 120 nM |  | good activity | 121 nM |  |  |  |
| COc1cc(C(=O)OC(C(N)=O)[C@]2(C)CO2)c2ccccc2c1 (stereo partly drawn) [(2R, 3S)-1] |  | good activity | 40 nM |  | good activity | 45 nM |  |  |  |
| C=C(C)[C@@H](OC(=O)c1cc(OC)cc2c(C)cccc12)C(N)=O [(2R)-2] |  | not cytotoxic |  |  | not cytotoxic |  |  | > 10000 nM | > 10000 nM |
